Assay results: patent publication US9371319B2, “Pyrrolopyridineamino derivatives as MPS1 inhibitors” (priority 2011, dated 2016)

target: T1, full length MPS1 (Homo sapiens, UniProt P33981); assay: biochemical
T1 sequence (P33981 1-857): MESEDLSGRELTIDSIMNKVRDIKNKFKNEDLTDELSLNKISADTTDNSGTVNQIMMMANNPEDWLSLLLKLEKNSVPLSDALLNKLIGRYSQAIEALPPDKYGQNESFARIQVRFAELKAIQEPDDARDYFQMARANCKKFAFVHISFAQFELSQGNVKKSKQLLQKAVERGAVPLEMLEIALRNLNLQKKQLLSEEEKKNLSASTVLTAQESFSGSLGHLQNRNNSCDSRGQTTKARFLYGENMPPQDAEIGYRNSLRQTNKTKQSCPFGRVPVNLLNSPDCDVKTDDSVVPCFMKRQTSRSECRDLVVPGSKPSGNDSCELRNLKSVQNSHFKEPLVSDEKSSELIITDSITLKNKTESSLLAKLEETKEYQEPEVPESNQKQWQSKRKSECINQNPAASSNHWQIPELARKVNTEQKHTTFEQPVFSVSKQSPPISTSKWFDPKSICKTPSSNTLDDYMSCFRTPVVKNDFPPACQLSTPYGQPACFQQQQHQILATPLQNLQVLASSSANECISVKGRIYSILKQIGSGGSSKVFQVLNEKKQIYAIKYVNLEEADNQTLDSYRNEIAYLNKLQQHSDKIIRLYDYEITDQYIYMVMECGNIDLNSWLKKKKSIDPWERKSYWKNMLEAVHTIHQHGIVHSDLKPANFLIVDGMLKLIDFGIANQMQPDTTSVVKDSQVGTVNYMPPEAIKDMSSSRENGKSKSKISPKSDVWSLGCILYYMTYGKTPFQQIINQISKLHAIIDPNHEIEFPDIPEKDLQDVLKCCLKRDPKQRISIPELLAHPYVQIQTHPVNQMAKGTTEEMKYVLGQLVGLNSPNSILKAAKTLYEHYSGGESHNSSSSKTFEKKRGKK
Experimental: Measurement of Inhibition of MPS1 Kinase
(5 μM), ATP (10 μM), either DMSO (1% v/v) or the test compound (in the range 0.25 nM-100 μM in 1% DMSO) and assay buffer (50 mM HEPES (pH 7.0), 0.02% NaN3, 0.01% BSA, 0.1 mM Orthovandate, […], 1 μM DTT, Roche protease inhibitor). The reaction was carried out for 60 min at room temperature and stopped by the addition of buffer (10 μl) containing 20 mM EDTA, 0.05% (v/v) Brij-35, in 0.1M HEPES-buffered saline (Free acid, Sigma, UK). The plate was read on a Caliper EZ reader II (Caliper Life Sciences).
The % inhibition of the compounds is calculated relative to the means of selected control wells. […] The % inhibitions at each concentration are then fitted to a 4 parameter logistic fit: y=(a+((b−a)/(1+((c/x^d)))) where a=asym min, b=asym max, c=IC50 and d=hill coefficient

| IC50 | Structure (SMILES) |
| --- | --- |
| 548 nM | Cn1cc(-c2ccc(Cl)c(Nc3cc4[nH]c(-c5cnn(C)c5)cc4cn3)c2)cn1 [Example 184, N-(2-Chloro-5-(1-methyl-1H-pyrazol-4-yl)phenyl)-2-(1-methyl-1H-pyrazol-4-yl)-1H-pyrrolo[3,2-c]pyridin-6-amine] |
| 7 nM | Cc1nn(C)cc1-c1ccc(Nc2cc3c(cn2)cc(-c2cnn(C)c2)n3C(=O)OC(C)(C)C)c(Cl)c1 [Example 21] |
| 2 nM | COc1cc(-c2cnc(C)n2C)ccc1Nc1cc2c(cn1)cc(-c1cnn(C)c1)n2C(=O)OC(C)C [Example 68] |
| 1 nM | Cn1cc(-c2cc3cnc(Nc4ccc(-c5nncn5C)cc4Cl)cc3n2C(=O)OC(C)(C)C)cn1 [Example 18] |
| 7 nM | COc1cc(-c2cnn(C)c2)ccc1Nc1cc2c(cn1)cc(-c1cnn(C)c1)n2C(=O)OC(C)C [Example 102] |
| 537 nM | Cn1cc(-c2ccc(Cl)c(Nc3cc4c(cn3)cc(-c3cnn(C)c3)n4C(=O)OC(C)(C)C)c2)cn1 [Example 62] |
| 2 nM | COc1cc(-c2cn(C)nc2C)ccc1Nc1cc2c(cn1)cc(-c1cnn(C)c1)n2C(=O)OC(C)C [Example 103] |
| 5 nM | Cn1cc(-c2cc3cnc(Nc4ccc(-c5cncn5C)cc4Cl)cc3n2C(=O)OC2CCC2)cn1 [Example 82] |
| 9 nM | COCCNC(=O)c1ccc(Nc2cc3c(cn2)cc(-c2cnn(C)c2)n3C(=O)OC(C)(C)C)c(OC)c1 [Example 11] |
| 92 nM | CN(C)C(=O)c1ccc(Nc2cc3c(cn2)cc(-c2cnn(C)c2)n3S(=O)(=O)C2CCCC2)c(Cl)c1 [Example 110, 3-Chloro-4-(1-(cyclopentylsulfonyl)-2-(1-methyl-1H-pyrazol-4-yl)-1H-pyrrolo[3,2-c]pyridin-6-ylamino)-N,N-dimethylbenzamide] |
| 43 nM | Cc1ccc(-n2c(-c3cnn(C)c3)cc3cnc(Nc4ccc(C(=O)N(C)C)cc4Cl)cc32)nc1 [Example 92] |
| 19 nM | COCCNC(=O)c1ccc(Nc2cc3[nH]c(-c4cnn(C)c4)cc3cn2)c(OC)c1 [Example 119, 3-Methoxy-N-(2-methoxyethyl)-4-(2-(1-methyl-1H-pyrazol-4-yl)-1H-pyrrolo[3,2-c]pyridin-6-ylamino)benzamide] |
| 7 nM | Cc1c(-c2ccc(Nc3cc4c(cn3)cc(-c3cnn(C)c3)n4C(=O)OC(C)(C)C)c(Cl)c2)cnn1C [Example 20] |
| 53 nM | CN(C)C(=O)c1ccc(Nc2cc3c(cn2)c(Cl)c(-c2cnn(C)c2)n3CC2CC2)c(Cl)c1 [Example 192, 3-Chloro-4-(3-chloro-1-(cyclopropylmethyl)-2-(1-methyl-1H-pyrazol-4-yl)-1H-pyrrolo[3,2-c]pyridin-6-ylamino)-N,N-dimethylbenzamide] |
| 114 nM | Cc1nc(C)c(-c2ccc(Nc3cc4[nH]c(-c5cnn(C)c5)cc4cn3)c(Cl)c2)s1 [Example 150, N-(2-Chloro-4-(2,4-dimethylthiazol-5-yl)phenyl)-2-(1-methyl-1H-pyrazol-4-yl)-1H-pyrrolo[3,2-c]pyridin-6-amine] |
| 11 nM | CCN(C)C(=O)c1ccc(Nc2cc3[nH]c(-c4cnn(C)c4)cc3cn2)c(Cl)c1 [Example 144, 3-Chloro-N-ethyl-N-methyl-4-(2-(1-methyl-1H-pyrazol-4-yl)-1H-pyrrolo[3,2-c]pyridin-6-ylamino)benzamide] |
| 8.4 nM | CN(C)C(=O)c1ccc(Nc2cc3[nH]c(-c4cnn(C)c4)c(Cl)c3cn2)c(Cl)c1 [Example 190, 3-Chloro-4-(3-chloro-2-(1-methyl-1H-pyrazol-4-yl)-1H-pyrrolo[3,2-c]pyridin-6-ylamino)-N,N-dimethylbenzamide] |
| 20 nM | CN(C)C(=O)c1cc(Cl)c(Nc2cc3c(cn2)cc(-c2cnn(C)c2)n3C(=O)OC(C)(C)C)c(Cl)c1 [Example 13] |
| 5 nM | Cc1ncc(-c2ccc(Nc3cc4c(cn3)cc(-c3cnn(C)c3)n4C(=O)OC(C)(C)C)c(Cl)c2)n1C [Example 47] |
| 75 nM | COc1cc(-c2ccc(Nc3cc4c(cn3)cc(-c3cnn(C)c3)n4C(=O)OC(C)(C)C)c(Cl)c2)ccn1 [Example 46] |

| IC50 | Structure (SMILES) |
| --- | --- |
| 4 nM | Cn1cc(-c2cc3cnc(Nc4ccc(-c5cncn5C)cc4Cl)cc3[nH]2)cn1 [Example 125, N-(2-Chloro-4-(1-methyl-1H-imidazol-5-yl)phenyl)-2-(1-methyl-1H-pyrazol-4-yl)-1H-pyrrolo[3,2-c]pyridin-6-amine] |
| 17 nM | CC(C)OC(=O)n1c(-c2cnn(C)c2)cc2cnc(Nc3ccc(-c4cnn(C)c4)cc3Cl)cc21 [Example 76] |
| 12 nM | Cn1cc(-c2cc3cnc(Nc4ccc(C(=O)N5CCCC5)cc4Cl)cc3[nH]2)cn1 [Example 145, (3-Chloro-4-(2-(1-methyl-1H-pyrazol-4-yl)-1H-pyrrolo[3,2-c]pyridin-6-ylamino)phenyl)(pyrrolidin-1-yl)methanone] |
| 18 nM | Cn1cc(-c2cc3cnc(Nc4ccc(N5CCCC5=O)cc4Cl)cc3[nH]2)cn1 [Example 136, 1-(3-chloro-4-((2-(1-methyl-1H-pyrazol-4-yl)-1H-pyrrolo[3,2-c]pyridin-6-yl)amino)phenyl)pyrrolidin-2-one] |
| 510 nM | Cn1cc(-c2cc3cnc(Nc4ccc(F)cc4Cl)cc3[nH]2)cn1 [Example 130, N-(2-Chloro-4-fluorophenyl)-2-(1-methyl-1H-pyrazol-4-yl)-1H-pyrrolo[3,2-c]pyridin-6-amine] |
| 11 nM | Cc1oncc1-c1ccc(Nc2cc3c(cn2)cc(-c2cnn(C)c2)n3C(=O)OC(C)(C)C)c(Cl)c1 [Example 23] |
| 5 nM | Cn1cncc1-c1ccc(Nc2cc3[nH]c(-c4cnco4)cc3cn2)c(Cl)c1 [Example 185, N-(2-Chloro-4-(1-methyl-1H-imidazol-5-yl)phenyl)-2-(oxazol-5-yl)-1H-pyrrolo[3,2-c]pyridin-6-amine] |
| 2 nM | Cc1ncc(-c2ccc(Nc3cc4c(cn3)cc(-c3cnn(C)c3)n4C(=O)OC(C)C)cc2)n1C [Example 108] |
| 8 nM | COC1CN(C(=O)c2ccc(Nc3cc4c(cn3)cc(-c3cnn(C)c3)n4C(=O)OC(C)(C)C)c(Cl)c2)C1 [Example 37] |
| 8 nM | CN1CCN(C(=O)c2ccc(Nc3cc4c(cn3)cc(-c3cnn(C)c3)n4C(=O)OC(C)(C)C)c(Cl)c2)CC1 [Example 41] |
| 10 nM | COc1cc(CN2CCS(=O)(=O)CC2)ccc1Nc1cc2[nH]c(-c3cnn(C)c3)cc2cn1 [Example 116, N-(2-Methoxy-4-(thiomorpholinomethyl)phenyl)-2-(1-methyl-1H-pyrazol-4-yl)-1H-pyrrolo[3,2-c]pyridin-6-amine-S,S-dioxide] |
| 32 nM | Cn1cc(-c2cc3cnc(Nc4ccccc4C#N)cc3n2C(=O)OC(C)(C)C)cn1 [Example 54] |
| 254 nM | COc1ccccc1Nc1cc2c(cn1)cc(-c1cnco1)n2C(=O)OC(C)(C)C [Example 96] |
| 128 nM | Cn1cc(-c2ccc(Nc3cc4[nH]c(-c5cnn(C)c5)c(Cl)c4cn3)c(Cl)c2)cn1 [Example 194, 3-Chloro-N-(2-chloro-4-(1-methyl-1H-pyrazol-4-yl)phenyl)-2-(1-methyl-1H-pyrazol-4-yl)-1H-pyrrolo[3,2-c]pyridin-6-amine] |
| 43 nM | COc1cc(CN)ccc1Nc1cc2[nH]c(-c3cnn(C)c3)cc2cn1 [Example 140, N-(4-(Aminomethyl)-2-methoxyphenyl)-2-(1-methyl-1H-pyrazol-4-yl)-1H-pyrrolo[3,2-c]pyridin-6-amine] |
| 2 nM | CS(=O)(=O)c1ccc(Nc2cc3[nH]c(-c4cn[nH]c4)cc3cn2)c(Cl)c1 [Example 154, N-(2-chloro-4-(methylsulfonyl)phenyl)-2-(1H-pyrazol-4-yl)-1H-pyrrolo[3,2-c]pyridin-6-amine] |
| 2 nM | Cc1ncc(-c2ccc(Nc3cc4c(cn3)cc(-c3cnn(C)c3)n4C(=O)OC3CCCC3)c(Cl)c2)n1C [Example 84] |
| 25 nM | COc1cc(CN2CCCC2)ccc1Nc1cc2[nH]c(-c3cnn(C)c3)cc2cn1 [Example 137, N-(2-methoxy-4-(pyrrolidin-1-ylmethyl)phenyl)-2-(1-methyl-1H-pyrazol-4-yl)-1H-pyrrolo[3,2-c]pyridin-6-amine] |
| 5 nM | COc1cc(C(=O)N2CCOCC2)ccc1Nc1cc2c(cn1)cc(-c1cnn(C)c1)n2C(=O)OC(C)(C)C [Example 10] |
| 6 nM | Cn1cc(-c2cc3cnc(Nc4ccc(C(=O)N5CC(F)(F)C5)cc4Cl)cc3n2C(=O)OC(C)(C)C)cn1 [Example 50] |
